In one test the target is JMJD2C (Homo sapiens (Human), UniProt Q9H3R0). The test is described as follows: In vitro enzyme inhibition assay for JMJD2C activity (TR-FRET). Type of test: biochemical. Put shortly:
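Demethylation product H3K9me2 quantified by TR-FRET ratio 665/615 after EDTA stop and 1 h with Eu-anti-H3K9me2 and streptavidin-APC; IC50 by curve fit. Reaction: 0.3 nM JMJD2C (AA 2-372, baculovirus), 2 μM α-ketoglutarate, 300 nM biotin-H3K9me3 peptide, pH 7.3 HEPES with Fe(II)/ascorbate, 30 min room temperature.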
(Time-resolved FRET reads energy transfer from a long-lived donor to a nearby acceptor.)

A further test concerns the target JMJD3 (Homo sapiens, UniProt O15054). Nature of the test: In vitro enzyme inhibition assay for JMJD3 activity (TR-FRET). Format: biochemical. On the procedure: This assay determines the ability of a test compound to inhibit JMJD3 demethylase activity.
The enzymatic assay of JMJD3 activity is based upon Time Resolved-Fluorescence Resonance Energy Transfer (TR-FRET) detection. […] Reaction product was determined quantitatively by TR-FRET after the addition of detection reagent Phycolink Streptavidin-allophycocyanin (Prozyme) and Europium-anti-di-methylated histone H3 lysine 27 (H3K27me2) antibody (PerkinElmer) in the presence of 5 mM EDTA in LANCE detection buffer (PerkinElmer) at a final concentration of 50 nM and 1 nM, respectively.
The reaction mixture was incubated at room temperature for 30 minutes, and terminated by the addition of 6 μL of 5 mM EDTA in LANCE detection buffer containing 100 nM Phycolink Streptavidin-allophycocyanin and 2 nM Europium-anti-H3K27me2 antibody.

Test [1] relates to KYSE-150 esophageal carcinoma cell line. The test is described as follows: In vitro cell-based assay: cellular proliferation via BrdU incorporation (ELISA). To be noted: KYSE-150, 168 hours compound incubation. The arrangement: species or system human. A digest of the protocol: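 BrdU incorporation during S-phase, detected colorimetrically at 450 nm by peroxidase ELISA, measured proliferation after 168 h compound exposure.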
For orientation: Uptake of a labelled nucleoside into DNA is a usual measure of proliferation.

Usually IC50 stands for the concentration that gives 50% inhibition. The low end stands for greater potency in that assay, the high end for weaker potency in that assay.

Counter-ions that a name gives are not always drawn. Some results are limits rather than exact numbers.

JMJD2C, sequence (Q9H3R0 2-372): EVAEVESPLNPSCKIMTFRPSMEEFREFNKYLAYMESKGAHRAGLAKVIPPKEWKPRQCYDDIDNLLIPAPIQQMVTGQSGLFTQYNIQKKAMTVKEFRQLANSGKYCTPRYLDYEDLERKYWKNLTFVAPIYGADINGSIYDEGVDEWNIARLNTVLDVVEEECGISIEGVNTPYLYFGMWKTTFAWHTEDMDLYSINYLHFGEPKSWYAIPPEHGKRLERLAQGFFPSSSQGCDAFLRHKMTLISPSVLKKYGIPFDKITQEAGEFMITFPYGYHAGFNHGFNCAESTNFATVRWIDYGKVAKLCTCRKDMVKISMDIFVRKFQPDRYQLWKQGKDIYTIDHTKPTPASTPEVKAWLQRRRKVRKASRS

Consider `O=C(O)c1ccncc1NCC1CCOc2cc(N3CCc4ccccc43)ccc21` (stereo not drawn) [Example 17, 3-({[7-(2,3-dihydro-1H-indol-1-yl)-3,4-dihydro-2H-1-benzopyran-4-yl]methyl}amino)pyridine-4-carboxylic acid], for which the IC50 fell in the range of 100 to 1000 nM against JMJD2C, 1000 to 10000 nM on JMJD3 and 100 to 1000 nM in test [1] (Homo sapiens).
Turning to `CN(c1ccccc1)c1ccc2c(c1)CCCC2CNc1cnccc1C(=O)O` (stereo in doubt) [Example 2, 3-({[(1S)-6-[methyl(phenyl)amino]-1,2,3,4-tetrahydronaphthalen-1-yl]methyl}amino)pyridine-4-carboxylic acid], the IC50 is 100 to 1000 nM against JMJD2C and 1000 to 10000 nM against JMJD3.
For `CN(c1ccc(F)cc1)c1ccc2c(c1)OCC[C@H]2CNc1cnccc1C(=O)O` [Example 21, 3-({[(4R)-7-[(4-fluorophenyl)(methyl)amino]-3,4-dihydro-2H-1-benzopyran-4-yl]methyl}amino)pyridine-4-carboxylic acid], the results for the IC50 (on JMJD2C; against JMJD3; in test [1] (Homo sapiens)) were 100 to 1000 nM, 1000 to 10000 nM and not above 100 nM, respectively.
Regarding `O=C(O)c1ccncc1NC[C@@H]1CCOc2cc(-c3ccccc3O)ccc21` [Example 138, 3-({[(4R)-7-(2-hydroxyphenyl)-3,4-dihydro-2H-1-benzopyran-4-yl]methyl}amino)pyridine-4-carboxylic acid], the IC50 against JMJD2C was in the range of 100 to 1000 nM; against JMJD3 it was 1000 to 10000 nM.
For `CN(c1ccc(Cl)cc1)c1ccc2c(c1)OCC[C@H]2CNc1cnccc1C(=O)O` [Example 23, 3-({[(4R)-7-[(4-chlorophenyl)(methyl)amino]-3,4-dihydro-2H-1-benzopyran-4-yl]methyl}amino)pyridine-4-carboxylic acid], the figures for the IC50 (on JMJD2C; against JMJD3; in test [1] (Homo sapiens)) were 100 to 1000 nM, 1000 to 10000 nM and not above 100 nM, respectively.
Take `Cc1cccc(-c2ccc3c(c2)OCC[C@@H]3CNc2cnccc2C(=O)O)c1` [Example 29, 3-({[(4S)-7-(3-methylphenyl)-3,4-dihydro-2H-1-benzopyran-4-yl]methyl}amino)pyridine-4-carboxylic acid]: the IC50 on JMJD2C lay within 1000 to 10000 nM; against JMJD3, 100 to 1000 nM.
`CN(c1ccc(OC(F)(F)F)cc1)c1ccc2c(c1)OCC[C@H]2CNc1cnccc1C(=O)O` [Example 182, 3-({[(4R)-7-{methyl[4-(trifluoromethoxy)phenyl]amino}-3,4-dihydro-2H-1-benzopyran-4-yl]methyl}amino)pyridine-4-carboxylic acid]: the IC50 on JMJD2C lay within 100 to 1000 nM; against JMJD3 it was 1000 to 10000 nM.
For `O=C(O)c1ccncc1NC[C@H]1CCOc2cc(-c3ccccc3Cl)ccc21` [Example 39, 3-({[(4S)-7-(2-chlorophenyl)-3,4-dihydro-2H-1-benzopyran-4-yl]methyl}amino)pyridine-4-carboxylic acid] the same measures were 1000 to 10000 nM and 100 to 1000 nM.
For `Cc1sccc1-c1ccc2c(c1)OCC[C@@H]2CNc1cnccc1C(=O)O` [Example 36, 3-({[(4S)-7-(2-methylthiophen-3-yl)-3,4-dihydro-2H-1-benzopyran-4-yl]methyl}amino)pyridine-4-carboxylic acid] the same measures were 1000 to 10000 nM and 100 to 1000 nM.
For `CN(c1ccccc1)c1ccc2c(c1)CCC[C@@H]2CNc1cnccc1C(=O)O` [Example 1, 3-({[(1S)-6-[methyl(phenyl)amino]-1,2,3,4-tetrahydronaphthalen-1-yl]methyl}amino)pyridine-4-carboxylic acid] the same measures were 1000 to 10000 nM and 1000 to 10000 nM.
Take `O=C(O)c1ccncc1NC[C@H]1CCOc2cc(-c3ccccc3)ccc21` [Example 83 of U.S. Pat. No. 8,952,151, 3-({[(4S)-7-phenyl-3,4-dihydro-2H-1-benzopyran-4-yl]methyl}amino)pyridine-4-carboxylic acid, reference compound]: the “fold more potent for JMJD3 than the R-enantiomer” value on JMJD3 (S-enantiomer vs R-enantiomer) is reported as more than 100 fold.
Regarding `O=C(O)c1ccncc1NC[C@H]1CCOc2cc(Sc3cccc(F)c3)ccc21` [Example 52, 3-({[(4S)-7-[(3-fluorophenyl)sulfanyl]-3,4-dihydro-2H-1-benzopyran-4-yl]methyl}amino)pyridine-4-carboxylic acid], the IC50 on JMJD2C was 1000 to 10000 nM; against JMJD3 it was 100 to 1000 nM.
For `Cc1ccc(-c2ccc3c(c2)OCC[C@@H]3CNc2cnccc2C(=O)O)cc1` [Example 31, 3-({[(4S)-7-(4-methylphenyl)-3,4-dihydro-2H-1-benzopyran-4-yl]methyl}amino)pyridine-4-carboxylic acid] the same measures were 1000 to 10000 nM and 100 to 1000 nM.
Consider “3-({[(1R)-6-[benzyl(methyl)amino]-1,2,3,4-tetrahydronaphthalen-1-yl]methyl}amino)pyridine-4-carboxylic acid [Example 130]”, for which the figures for the IC50 against JMJD2C and at JMJD3 were 100 to 1000 nM and 1000 to 10000 nM, respectively.
For `O=C(O)c1ccncc1NC[C@H]1CCOc2cc(-c3ccsc3)ccc21` [Example 33, 3-({[(4S)-7-(thiophen-3-yl)-3,4-dihydro-2H-1-benzopyran-4-yl]methyl}amino)pyridine-4-carboxylic acid] the same measures were 1000 to 10000 nM and less than 100 nM.
As for `CN(c1ccncc1)c1ccc2c(c1)CCC[C@H]2CNc1cnccc1C(=O)O` [Example 173, 3-({[(1R)-6-[methyl(pyridin-4-yl)amino]-1,2,3,4-tetrahydronaphthalen-1-yl]methyl}amino)pyridine-4-carboxylic acid], the IC50 against JMJD2C is not above 100 nM; in test [1] (Homo sapiens), more than 10000 nM.
With `CN(c1ccc2c(c1)OCC[C@H]2CNc1cnccc1C(=O)O)c1ccccc1F` [Example 19, 3-({[(4R)-7-[(2-fluorophenyl)(methyl)amino]-3,4-dihydro-2H-1-benzopyran-4-yl]methyl}amino)pyridine-4-carboxylic acid], the figures for the IC50 (at JMJD2C; in test [1] (Homo sapiens)) were 100 to 1000 nM and not above 100 nM, respectively.
For the molecule `CN(c1ccc(OC2CC2)cc1)c1ccc2c(c1)OCC[C@H]2CNc1cnccc1C(=O)O` [Example 213, 3-({[(4R)-7-[(4-cyclopropoxyphenyl)(methyl)amino]-3,4-dihydro-2H-1-benzopyran-4-yl]methyl}amino)pyridine-4-carboxylic acid], the IC50 is 100 to 1000 nM at JMJD2C and not above 100 nM in test [1] (Homo sapiens).
Take `O=C(O)c1ccncc1NCC1CCOc2cc(Br)ccc21` (stereo not drawn) [Example 14, 3-{[(7-bromo-3,4-dihydro-2H-1-benzopyran-4-yl)methyl]amino}pyridine-4-carboxylic acid]: the values for the IC50 (against JMJD2C; in test [1] (Homo sapiens)) were 100 to 1000 nM and more than 10000 nM, respectively.
For the molecule `O=C(O)c1ccncc1NC[C@H]1CCOc2cc(Sc3ccc(F)cc3)ccc21` [Example 54, 3-({[(4S)-7-[(4-fluorophenyl)sulfanyl]-3,4-dihydro-2H-1-benzopyran-4-yl]methyl}amino)pyridine-4-carboxylic acid], the IC50 fell in the range of 1000 to 10000 nM at JMJD2C and 100 to 1000 nM against JMJD3.
Regarding “3-({[(1R)-6-[methyl(2-methyl-1,3-thiazol-4-yl)amino]-1,2,3,4-tetrahydronaphthalen-1-yl]methyl}amino)pyridine-4-carboxylic acid [Example 139]”, the results for the IC50 (against JMJD2C; in test [1]) were 100 to 1000 nM and not above 100 nM, respectively.
`CC(C)Oc1ccc(N(C)c2ccc3c(c2)OCC[C@H]3CNc2cnccc2C(=O)O)cc1` [Example 210, 3-({[(4R)-7-{methyl[4-(propan-2-yloxy)phenyl]amino}-3,4-dihydro-2H-1-benzopyran-4-yl]methyl}amino)pyridine-4-carboxylic acid]: the IC50 was 100 to 1000 nM against JMJD2C and not above 100 nM in test [1] (Homo sapiens).
For `Cc1cc(-c2ccc3c(c2)CCCC3CNc2cnccc2C(=O)O)ccn1` (stereo not drawn) [Example 89, 3-({[6-(2-methylpyridin-4-yl)-1,2,3,4-tetrahydronaphthalen-1-yl]methyl}amino)pyridine-4-carboxylic acid, hydrochloride] the same measures were 100 to 1000 nM and more than 10000 nM.
Take `Cc1ccccc1N(C)c1ccc2c(c1)OCC[C@H]2CNc1cnccc1C(=O)O` [Example 111, 3-({[(4R)-7-[methyl(2-methylphenyl)amino]-3,4-dihydro-2H-1-benzopyran-4-yl]methyl}amino)pyridine-4-carboxylic acid]: the IC50 (against JMJD2C; in test [1] (Homo sapiens)) was 100 to 1000 nM throughout.
`CN(c1cc(F)cc(F)c1)c1ccc2c(c1)OCC[C@H]2CNc1cnccc1C(=O)O` [Example 109, 3-({[(4R)-7-[(3,5-difluorophenyl)(methyl)amino]-3,4-dihydro-2H-1-benzopyran-4-yl]methyl}amino)pyridine-4-carboxylic acid]: the IC50 (on JMJD2C; in test [1] (Homo sapiens)) was 100 to 1000 nM throughout.
As to `CN(c1cccc(Cl)c1)c1ccc2c(c1)OCC[C@H]2CNc1cnccc1C(=O)O` [Example 110, 3-({[(4R)-7-[(3-chlorophenyl)(methyl)amino]-3,4-dihydro-2H-1-benzopyran-4-yl]methyl}amino)pyridine-4-carboxylic acid], the IC50 is 1000 to 10000 nM against JMJD2C and not above 100 nM in test [1] (Homo sapiens).

These data come from patent US10106534B2 (CELGENE QUANTICEL RESEARCH, INC., priority 2014, dated 2018).
